Experimental data as given in US8247351B2, “Insecticidal compositions having improved effect” (Bayer Cropscience AG, priority 2005, dated 2012).
Each block holds one compound with its values, some of them ahead of it.

Columns and labels:
Myzus persicae [1] = experiment: Myzus persicae test, Example C (spraying top side of leaf, ammonium salt plus penetrant); assay type: in vivo; settings: 120 g/ha active ingredient
Protocol: (§1) Solvent: 7 parts by weight dimethylformamide
(§2) Emulsifier: 1 part by weight alkylaryl polyglycol ether
(§3) An appropriate preparation of active ingredient is prepared by mixing 1 part by weight of active ingredient with the stated amounts of solvent and emulsifier and diluting the concentrate with water to the desired concentration. Where it is necessary to add ammonium salts, phosphonium salts or penetrant, the appropriate amount is added by pipette, after dilution, to each of the ready prepared product solutions. Single-leaf paprika plants (Capsicum annuum) heavily infested by the green peach aphid (Myzus persicae) are treated by spraying the top side of the leaf (spray volume 600 1/ha) with the preparation of active ingredient at the desired concentration. After the desired time the destruction in % is ascertained. 100% means that all of the animals have been killed; 0% means that no animals have been killed.

Myzus persicae [2] = experiment: Myzus persicae test, Example B (spraying top side of leaf, ammonium salt boosting); assay type: in vivo; settings: 120 g/ha active ingredient
Protocol: as §1, §2
as §3, with “ready-prepared” for “ready prepared”

[3] = Penetration of active ingredient through enzymatically isolated apple leaf cuticles (Examples A-1, A-2, A-3); assay type: in vitro ADME, apple trees of the Golden Delicious variety; settings: 500 ppm in DMF/Emulgator W 7:1 (w/w)
Protocol: This test measured the penetration of active ingredients through enzymatically isolated cuticles of apple leaves.
The leaves used were cut in the fully developed state from apple trees of the Golden Delicious variety. The cuticles were isolated as follows: • first of all, leaf discs marked on the underside with dye and formed by punching were filled by means of vacuum infiltration with a pectinase solution (0.2% to 2% strength) buffered to a pH of between 3 and 4, • then sodium azide was added and • the leaf discs thus treated were left to stand until the original leaf structure broke down and the non-cellular cuticle underwent detachment.
Thereafter only those cuticles from the top leaf sides that were free from stomata and hairs were used. They were washed a number of times in alternation with water and with a buffer solution of pH 7. The clean cuticles obtained were, finally, applied to Teflon plaques, smoothed with a gentle jet of air, and dried.
In the next step the cuticular membranes obtained in this way were placed in stainless steel diffusion cells (i.e. transport chambers) for the purpose of membrane transport investigations. For these investigations the cuticles were placed centrally using tweezers on the edges of the diffusion cells, which were coated with silicone grease, and sealed with a ring, which was likewise greased. The arrangement had been chosen so that the morphological outer face of the cuticles was directed outwards, in other words to the air, while the original inner side was facing the interior of the diffusion cell.
The diffusion cells were filled with a 30% strength ethylene glycol/water solution. Penetration was determined by applying 10 μl of the spray liquor, whose composition is indicated below, to the outer face of each cuticle. The spray liquor is made up using local tap water of medium hardness.
After the spray liquors had been applied, the water was evaporated and the chambers were then inverted and placed in thermostated troughs in which the temperature and atmospheric humidity above the cuticle was adjustable by means of a gentle stream of air onto the cuticle with the spray coating (20° C., 60% rh). At regular intervals an autosampler took aliquots which were assayed for active ingredient by HPLC.
The figures indicated are average values from 8 to 10 measurements.
Example A-2 was carried out in the same way as in Example A-1.
Example A-3 was carried out in the same way as in Example A-1.

SMILES: Cc1ccc(-c2ccc(Cl)cc2)c(C)c1C1=C(O)C2(CCOCC2)NC1=O [Ex. I-1-a-2]
Degree of destruction/% after 4 days (Myzus persicae [1]; RME (1 g/l)): 37% | Degree of destruction/% after 4 days (Myzus persicae [1]; RME (1 g/l) + AS (1 g/l)): 92%

SMILES: CCOC(=O)OC1=C(c2cc(C)ccc2C)C(=O)N[C@]12CC[C@@H](OC)CC2 [Ex. I-1-c-1]
Degree of destruction/% after 3 days (Myzus persicae [2]; AS (ammonium sulphate, 1 g/l)): 67% | Degree of destruction/% after 3 days (Myzus persicae [2]; No AS): 37%

Penetration after 24 h/% ([3]; Table A-1, EC + AS (ammonium sulphate, 1 g/l)): 2.5% | Penetration after 24 h/% ([3]; Table A-1, EC + RME (1 g/l) + AS (1 g/l)): 41% | Penetration after 24 h/% ([3]; Table A-1, EC + RME (rapeseed oil methyl ester, 1 g/l)): 13.5% | Penetration after 24 h/% ([3]; Table A-1, EC alone, 20° C., 60% rh): 0.6% | Penetration after 24 h/% ([3]; Table A-2, EC + RME (1 g/l) + AT (ammonium thiocyanate, 1 g/l)): 12% | Penetration after 24 h/% ([3]; Table A-2, EC + RME (1 g/l)): 3.5% | Penetration after 24 h/% ([3]; Table A-2, EC alone): <0.2% | Penetration after 24 h/% ([3]; Table A-3, EC + RME (1 g/l) + Ammonium dihydrogen-phosphate (1 g/l)): 42% | Penetration after 24 h/% ([3]; Table A-3, EC + RME (1 g/l) + Diammonium hydrogen-phosphate (1 g/l)): 26% | Penetration after 24 h/% ([3]; Table A-3, EC + RME (1 g/l)): 10%
SMILES: Cc1cc(Cl)cc(C)c1C1=C(O)C2(CCOCC2)NC1=O [Example I-1-a-1]
